Data on 18 molecules can be found in patent US7517882B2, “Protein kinase inhibitors” (Polaris Group, priority 2006, dated 2009).

One assay has as its system PC-3 cells. As to the kind of experiment: Inhibition of cell growth (MTT), PC-3 cells. The settings on record: Homo sapiens, PC-3, 120 h, read-out: IC50 PC-3.
A further assay deals with HCT-116 cells. As to the kind of experiment: Inhibition of cell growth (MTT), HCT-116 cells. Particulars: Homo sapiens, HCT-116, 120 h, read-out: IC50 HCT 116 cells.
For the next assay, the target named is T1, human CK2 (Homo sapiens, UniProt P68400).
T1 construct: Full Length His-tagged Human CK2 was cloned, expressed, and purified; His tag; made in house; host or cells: E. coli
The experiment in a line: CK2 protein kinase inhibition assay (spectrophotometric PK/LDH coupled assay). Type of assay: biochemical. The method, then: CK2 protein kinase activity was measured through use of a spectrophotometric PK/LDH coupled assay to detect ATP turnover. Full Length His-tagged Human CK2 was cloned, expressed, and purified from an E. coli expression system. The peptide substrate for CK2 phosphorylation was […] (Genscript Corporation, Piscataway, N.J., USA). […] Prior to the addition of ATP to initiate the phosphorylation reaction, CK2 enzyme was pre-incubated with inhibitors and other assay components for 5 min. Progress of the reaction was continuously monitored by the change in UV/Vis absorbance at 340 nm. […] In the case of very potent binding, tight-binding methods were employed to determine Ki.

As usually defined, the IC50 is the point on the concentration scale where inhibition reaches its midpoint. Usually Ki stands for a measure of affinity in units of concentration, obtained from inhibition or displacement. A high value points to a looser hold on the target.

Each structure is given as a SMILES string. Bounds are passed on as bounds.

T1 sequence (P68400 whole entry): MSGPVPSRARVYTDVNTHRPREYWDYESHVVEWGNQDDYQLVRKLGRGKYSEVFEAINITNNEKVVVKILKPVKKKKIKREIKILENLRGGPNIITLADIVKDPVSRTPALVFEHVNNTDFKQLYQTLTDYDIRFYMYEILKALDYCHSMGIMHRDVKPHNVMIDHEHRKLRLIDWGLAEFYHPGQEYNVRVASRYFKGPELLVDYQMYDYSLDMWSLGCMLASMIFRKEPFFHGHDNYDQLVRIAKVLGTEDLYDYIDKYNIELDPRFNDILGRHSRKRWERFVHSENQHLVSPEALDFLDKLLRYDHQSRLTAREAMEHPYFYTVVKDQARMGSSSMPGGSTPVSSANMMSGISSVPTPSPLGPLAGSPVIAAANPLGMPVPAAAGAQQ
Protocol for HCT-116 cells: (§1) HCT-116 and PC-3 cells were cultured at 37° C. with 5% CO2 and in 10% fetal bovine serum with McCoy's 5A modified medium and F-12 K medium respectively. Cells were plated on 96 well plates at a density of 2,000-4,000/well in the volume of 100 μL medium. […] The control wells contained 1% dimethylsulfoxide only in their medium. After further incubation of three to five days to allow cells grow before the control cells reach confluence, 15 μL/well MTT reagent (5 mg/mL) were added and incubated for 4 h. After the incubation, the medium was removed and the newly generated formazan solubilized with dimethylsulfoxide (100 μL/well) and measured at 540 nm. The absorption data were fit into equation and calculated for IC50 values through use of the program KaleidaGraph (Synergy Software). The fitting equation for IC50 is y=a+b/(1+(x/IC50)); x is the compound concentration, a is the background absorption at 540 nm, and b is the absorption at zero compound concentration.
Protocol for PC-3 cells: as §1

As for `O=C1CCCCc2cnn3c(NC4CC4)nc(nc23)Nc2cccc(c2)N1` [Compound 11a, (11,14)3,5N-{cyclopropyl-pyrazolo[1,5-a][1,3,5]triazin-4-ylamino}-(2N,4N)-phenyl-1,5-diaza-cyclotetradeca-8-one], the IC50 with PC-3 cells and with HCT-116 cells was below 1000 nM each time.
As to `O=C1CCCCc2cnn3c(Nc4cccnc4)nc(nc23)Nc2cccc(c2)N1` [Compound 11d, (11,14)3,5N-{pyrid-3-yl-pyrazolo[1,5-a][1,3,5]triazin-4-yl-amino}-(2N,4N)-phenyl-1,5-diaza-cyclotetradeca-8-one], the IC50 with PC-3 cells and with HCT-116 cells was below 1000 nM throughout. On human CK2, this molecule gave a Ki below 100 nM.
Consider `CCOc1cccc(Nc2nc3nc4c(cnn24)CCCCC(=O)Nc2cccc(c2)N3)c1` [Compound 11e, (11,14)3,5N-{(3-ethoxyphenyl)-pyrazolo[1,5-a][1,3,5]triazin-4-yl-amino}-(2N,4N)-phenyl-1,5-diaza-cyclotetradeca-8-one], for which the IC50 with PC-3 cells and in the assay with HCT-116 cells was below 1000 nM each time. For the same molecule, the Ki on human CK2 is below 100 nM.
With `CN1CCC(N(C)C(=O)c2cccc(Nc3nc4nc5c(cnn35)CCCCC(=O)Nc3cccc(c3)N4)c2)C1` (centres unmarked) [Compound 11g, (11,14)3,5N-{3-(3-{[methyl(1-methylpyrrolidin-3-yl)amino]carbonyl}phenyl)-pyrazolo[1,5-a][1,3,5]triazin-4-yl-amino}-(2N,4N)-phenyl-1,5-diaza-cyclotetradeca-8-one], the IC50 in the assay on PC-3 cells and with HCT-116 cells was below 1000 nM in each case. In addition, the Ki at human CK2 is below 100 nM.
As for `CN1CCN(C(=O)c2cccc(Nc3nc4nc5c(cnn35)CCCCC(=O)Nc3cccc(c3)N4)c2)CC1` [Compound 11h, (11,14)3,5N-{3-(4-methylpiperazin-1-ylcarbonyl)phenyl-pyrazolo[1,5-a][1,3,5]triazin-4-yl-amino}-(2N,4N)-phenyl-1,5-diaza-cyclotetradeca-8-one], the concentration for half-maximal inhibition (IC50) in the assay with PC-3 cells and in the assay on HCT-116 cells was below 1000 nM in each case. In addition, the Ki at human CK2 was below 100 nM.
Regarding `CN(C)C1CCN(C(=O)c2cccc(Nc3nc4nc5c(cnn35)CCCCC(=O)Nc3cccc(c3)N4)c2)C1` (centres unmarked) [Compound 11i], the IC50 in the assay with PC-3 cells and in the assay on HCT-116 cells was below 1000 nM throughout. The molecule also showed a Ki at human CK2 below 100 nM.
`CCN(CC)C(=O)c1cccc(Nc2nc3nc4c(cnn24)CCCCC(=O)Nc2cccc(c2)N3)c1` [Compound 11j, (11,14)3,5N-{4-[(3-{3-(diethylamino)carbonyl}phenyl)amino]-pyrazolo[1,5-a][1,3,5]triazin-4-yl-amino}-(2N,4N)-phenyl-1,5-diaza-cyclotetradeca-8-one]: the IC50 in the assay with PC-3 cells and in the assay on HCT-116 cells was below 1000 nM throughout. This molecule also displayed a Ki at human CK2 below 100 nM.
For `CN(C)CCNC(=O)c1cccc(Nc2nc3nc4c(cnn24)CCCCC(=O)Nc2cccc(c2)N3)c1` [Compound 11k, (11,14)3,5N-{4-{[3-({[2-(dimethylamino)ethyl]-amino}carbonyl)phenyl]amino}-pyrazolo[1,5-a][1,3,5]triazin-4-yl-amino}-(2N,4N)-phenyl-1,5-diaza-cyclotetradeca-8-one], the IC50 in the assay on PC-3 cells and with HCT-116 cells was below 1000 nM throughout. This molecule had a Ki at human CK2 below 100 nM.
Consider `O=C1CCCCc2cnn3c(Nc4cccc(C(=O)N5CC(O)C5)c4)nc(nc23)Nc2cccc(c2)N1` [Compound 11l, (11,14)3,5N-{4-({3-[(3-hydroxyazetidin-1-yl)carbonyl]phenyl}amino)-pyrazolo[1,5-a][1,3,5]triazin-4-yl-amino}-(2N,4N)-phenyl-1,5-diaza-cyclotetradeca-8-one], for which the IC50 with PC-3 cells and in the assay with HCT-116 cells was below 1000 nM each time. The molecule also had a Ki at human CK2 below 100 nM.
Consider `CN1CC(NC(=O)c2cccc(Nc3nc4nc5c(cnn35)CCCCC(=O)Nc3cccc(c3)N4)c2)C1` [Compound 11m], for which the IC50 with PC-3 cells and in the assay on HCT-116 cells was below 1000 nM throughout. Besides, the Ki on human CK2 was below 100 nM.
`CN(C)CCN(C)C(=O)c1cccc(Nc2nc3nc4c(cnn24)CCCCC(=O)Nc2cccc(c2)N3)c1` [Compound 11n, (11,14)3,5N-{4-[(3-{[[2-(dimethylamino)ethyl](methyl)-amino]carbonyl}phenyl)amino]-pyrazolo[1,5-a][1,3,5]triazin-4-yl-amino}-(2N,4N)-phenyl-1,5-diaza-cyclotetradeca-8-one]: the half-maximal inhibitory concentration (IC50) with PC-3 cells and with HCT-116 cells was below 1000 nM each time. The Ki on human CK2 is below 100 nM.
As to `CN1CCC(N(C)C(=O)c2cccc(Nc3nc4nc5c(cnn35)CCCCC(=O)Nc3cccc(c3)N4)c2)CC1` [Compound 11o, (11,14)3,5N-{4-[(3-{[methyl(1-methylpiperidin-4-yl)amino]carbonyl}-phenyl)amino]-pyrazolo[1,5-a][1,3,5]triazin-4-yl-amino}-(2N,4N)-phenyl-1,5-diaza-cyclotetradeca-8-one], the IC50 in the assay with HCT-116 cells was below 1000 nM. For the same molecule, on human CK2, the Ki is below 100 nM.
For the molecule `CCN(CC)C1CCN(C(=O)c2cccc(Nc3nc4nc5c(cnn35)CCCCC(=O)Nc3cccc(c3)N4)c2)C1` (centres unmarked) [Compound 11p, (11,14)3,5N-{[(3-{[3-(diethylamino)pyrrolidin-1-yl]carbonyl}phenyl)amino]-pyrazolo[1,5-a][1,3,5]triazin-4-yl-amino}-(2N,4N)-phenyl-1,5-diaza-cyclotetradeca-8-one], the IC50 in the assay on PC-3 cells and in the assay on HCT-116 cells was below 1000 nM throughout. The Ki on human CK2 was below 100 nM.
Take `CCN(CC)C1CN(C(=O)c2cccc(Nc3nc4nc5c(cnn35)CCCCC(=O)Nc3cccc(c3)N4)c2)C1` [Compound 11q, (11,14)3,5N-{[(3-{[3-(diethylamino)azetidin-1-yl]carbonyl}-phenyl)amino]-pyrazolo[1,5-a][1,3,5]triazin-4-yl-amino}-(2N,4N)-phenyl-1,5-diaza-cyclotetradeca-8-one]: the half-maximal inhibitory concentration (IC50) with PC-3 cells and in the assay on HCT-116 cells was below 1000 nM in each case. The molecule further showed an inhibitory constant (Ki) on human CK2 below 100 nM.
For the molecule `O=C1CCCCc2cnn3c(Nc4cccc(C(=O)N5CCNCC5)c4)nc(nc23)Nc2cccc(c2)N1` [Compound 11r, (11,14)3,5N-{{[3-(piperazin-1-ylcarbonyl)phenyl]amino}-pyrazolo[1,5-a][1,3,5]triazin-4-yl-amino}-(2N,4N)-phenyl-1,5-diaza-cyclotetradeca-8-one], in the assay on HCT-116 cells, the 50% inhibitory concentration (IC50) was below 1000 nM. This molecule displayed a Ki at human CK2 below 100 nM.
On the same counts, the results for `CCN(CC)CCN(C)C(=O)c1cccc(Nc2nc3nc4c(cnn24)CCCCC(=O)Nc2cccc(c2)N3)c1` [Compound 11s] are below 1000 nM and below 100 nM.
As to `CN(C)C1CCN(C(=O)c2cccc(Nc3cc4nc5c(cnn35)CCCCC(=O)Nc3cccc(c3)N4)c2)C1` (centres unmarked) [Compound 18a, (11,14)3,5N-{[(3-Dimethylamino-pyrrolidine-1-carbonyl)-phen-3-yl]-pyrazolo[1,5-a]pyrimidin-2,4-yl-diamino}-(2N,4N)-phenyl-1,5-diaza-cyclotetradecan-6-one], the IC50 with PC-3 cells and in the assay on HCT-116 cells was below 3000 nM each time. At human CK2, this molecule had an inhibitory constant (Ki) below 100 nM.
Take `O=C1CCCCc2cnn3c(NC4CC4)cc(nc23)Nc2cccc(c2)N1` [Compound 18b]: the concentration for half-maximal inhibition (IC50) with PC-3 cells and with HCT-116 cells was below 3000 nM in each case. This molecule also returned a Ki on human CK2 below 100 nM.
